From article PMC8459971, “Evaluation of the hepatotoxicity of the novel GPR40 (FFAR1) agonist CPL207280 in the rat and monkey” (PLoS ONE, 2021)
Values joined by “and” are separate entries in the source; they are usually repeats but may differ in a detail not shown here. Equal values may be shown once.

Experiments:
[1] = Viability assay, human primary hepatocytes, RT-glo, 48 h; format: cell-based; settings: human, primary human hepatocytes, sheet Fig1 panel C (primary human hepatocytes), 48 h, replicates, read-out: viability, normalized to DMSO-treated controls
Description: (§1) To study the viability of the liver cells, 5 × 10^3 HepG2 (ATCC®) or human primary cells (ThermoFisher Scientific, USA) were seeded in 100 μL of DMEM media (Gibco; Thermo Fisher Scientific, USA) supplemented with fetal bovine serum (FBS)- in a 96-well plate. […] The experiments were performed in triplicates.

[2] = test system: human primary hepatocytes; assay: as above; format: cell-based; settings: for viability, normalized to DMSO-treated controls: sheet Fig1 panel C (primary human hepatocytes), replicates, in % (unit assumed)
Description: as §1

[3] = Metabolite profiling, human hepatocytes; format: in vitro ADME
Description: Suspensions of cryopreserved human, rat, and monkey hepatocytes were pooled from a minimum of three individuals. All cryopreserved hepatocytes were purchased from a commercial supplier. […] The cell density was 0.5 ×10^6 viable cells/mL. The final DMSO concentration during the incubation was 0.25%. Control incubations were performed in lysed cells to reveal any non-enzymatic degradation. Two control compounds were identified in each species. Samples (50 μL) were removed from the incubation mixture at 0, 10, 20, 40, 60, and 120 min and added to methanol containing an internal standard (100 μL) to stop the reaction. The samples were centrifuged (4000 x g at 4°C for 30 min) and the supernatants at each time point were pooled for analysis by LC MS/MS using Cyprotex generic methods. Following hepatocyte stability assays, the samples were utilized for metabolite profiling. […] Metabolites were characterized using a mass spectrometer comprising Waters Xevo QT of G2-S, Acquity Binary Solvent Manager, Acquity Column Manager, and 2777 Autosampler.

[4] = biological target: BSEP (Homo sapiens, UniProt O95342); assay: in vitro; settings: membrane vesicle preparations (BSEP)
BSEP, sequence (O95342 whole entry, the tested form may be a part): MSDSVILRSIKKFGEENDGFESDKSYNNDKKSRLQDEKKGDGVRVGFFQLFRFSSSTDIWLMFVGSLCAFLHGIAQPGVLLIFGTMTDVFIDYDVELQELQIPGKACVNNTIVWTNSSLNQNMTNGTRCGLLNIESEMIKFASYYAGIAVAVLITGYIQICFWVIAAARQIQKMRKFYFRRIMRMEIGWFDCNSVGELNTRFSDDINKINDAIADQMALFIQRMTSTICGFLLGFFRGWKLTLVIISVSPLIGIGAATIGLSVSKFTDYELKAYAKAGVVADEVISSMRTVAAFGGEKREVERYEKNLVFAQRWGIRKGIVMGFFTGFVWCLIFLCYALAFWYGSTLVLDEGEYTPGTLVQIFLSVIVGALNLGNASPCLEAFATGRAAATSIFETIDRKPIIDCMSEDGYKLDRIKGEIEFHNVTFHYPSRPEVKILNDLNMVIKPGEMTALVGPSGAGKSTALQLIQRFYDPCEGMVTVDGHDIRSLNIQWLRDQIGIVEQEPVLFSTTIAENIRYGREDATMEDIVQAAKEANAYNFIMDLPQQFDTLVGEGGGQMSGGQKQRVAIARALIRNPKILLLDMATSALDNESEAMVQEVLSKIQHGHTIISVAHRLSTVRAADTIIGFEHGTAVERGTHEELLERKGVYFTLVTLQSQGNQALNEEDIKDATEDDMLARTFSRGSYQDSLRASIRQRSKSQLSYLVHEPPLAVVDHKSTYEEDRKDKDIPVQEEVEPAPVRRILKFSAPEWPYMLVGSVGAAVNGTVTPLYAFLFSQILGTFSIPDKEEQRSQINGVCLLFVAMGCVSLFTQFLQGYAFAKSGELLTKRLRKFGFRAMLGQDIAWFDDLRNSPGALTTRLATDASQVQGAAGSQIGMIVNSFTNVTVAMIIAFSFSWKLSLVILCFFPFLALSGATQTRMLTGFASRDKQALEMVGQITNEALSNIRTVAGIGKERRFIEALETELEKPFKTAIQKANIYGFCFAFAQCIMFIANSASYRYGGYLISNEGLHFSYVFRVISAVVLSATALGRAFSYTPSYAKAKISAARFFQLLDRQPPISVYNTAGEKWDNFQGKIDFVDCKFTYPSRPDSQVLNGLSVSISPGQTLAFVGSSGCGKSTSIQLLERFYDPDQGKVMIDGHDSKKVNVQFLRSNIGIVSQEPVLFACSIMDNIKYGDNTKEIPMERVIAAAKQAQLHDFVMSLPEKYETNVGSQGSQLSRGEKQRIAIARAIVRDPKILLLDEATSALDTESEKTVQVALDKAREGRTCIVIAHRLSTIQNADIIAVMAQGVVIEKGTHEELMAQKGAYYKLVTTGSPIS
Description: (§2) In the vesicular transport inhibition assay (for BSEP, MRP) compounds were incubated with membrane vesicle preparations and the probe substrate. Incubations were carried out in the presence of 4 mM ATP or AMP to distinguish between transporter-mediated uptake and passive diffusion into the vesicles. For MRP2 and MRP3, reactions were carried out in the presence of 2 mM glutathione. Compounds were added to the reaction mixture in 0.75 μL of solvent (1% of the final incubation volume). […] Reactions were initiated by the addition of 25 μL of 12 mM MgATP (or 12 mM AMP in assay buffer as a background control) and preincubated separately. Reactions were quenched by the addition of 200 μL of ice-cold washing buffer and immediate filtration via glass fiber filters mounted on a 96-well plate (filter plate). The filters were washed (5 × 200 μL of ice-cold washing buffer), dried, and the amount of substrate inside the filtered vesicles was determined by liquid scintillation counting.

[5] = biological target: T1, MRP4 (Homo sapiens, UniProt O15439); assay: Vesicular transport inhibition assay, MRP4; settings: for Accumulation (counts per minute; CPM) with AMP / Accumulation (counts per minute; CPM) with ATP: MRP4;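 note: membrane vesicles with MRP4 incubated with compound and probe substrate plus 4 mM ATP, or AMP as passive-diffusion background, vesicular substrate uptake read by liquid scintillation counting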;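 for Accumulation (counts per minute; CPM) with AMP: ATP 4 mM vs AMP background separates transporter uptake from diffusion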;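 for Accumulation (counts per minute; CPM) with ATP: ATP 4 mM vs AMP background separates transporter uptake from diffusion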
T1 sequence (O15439 1-1325): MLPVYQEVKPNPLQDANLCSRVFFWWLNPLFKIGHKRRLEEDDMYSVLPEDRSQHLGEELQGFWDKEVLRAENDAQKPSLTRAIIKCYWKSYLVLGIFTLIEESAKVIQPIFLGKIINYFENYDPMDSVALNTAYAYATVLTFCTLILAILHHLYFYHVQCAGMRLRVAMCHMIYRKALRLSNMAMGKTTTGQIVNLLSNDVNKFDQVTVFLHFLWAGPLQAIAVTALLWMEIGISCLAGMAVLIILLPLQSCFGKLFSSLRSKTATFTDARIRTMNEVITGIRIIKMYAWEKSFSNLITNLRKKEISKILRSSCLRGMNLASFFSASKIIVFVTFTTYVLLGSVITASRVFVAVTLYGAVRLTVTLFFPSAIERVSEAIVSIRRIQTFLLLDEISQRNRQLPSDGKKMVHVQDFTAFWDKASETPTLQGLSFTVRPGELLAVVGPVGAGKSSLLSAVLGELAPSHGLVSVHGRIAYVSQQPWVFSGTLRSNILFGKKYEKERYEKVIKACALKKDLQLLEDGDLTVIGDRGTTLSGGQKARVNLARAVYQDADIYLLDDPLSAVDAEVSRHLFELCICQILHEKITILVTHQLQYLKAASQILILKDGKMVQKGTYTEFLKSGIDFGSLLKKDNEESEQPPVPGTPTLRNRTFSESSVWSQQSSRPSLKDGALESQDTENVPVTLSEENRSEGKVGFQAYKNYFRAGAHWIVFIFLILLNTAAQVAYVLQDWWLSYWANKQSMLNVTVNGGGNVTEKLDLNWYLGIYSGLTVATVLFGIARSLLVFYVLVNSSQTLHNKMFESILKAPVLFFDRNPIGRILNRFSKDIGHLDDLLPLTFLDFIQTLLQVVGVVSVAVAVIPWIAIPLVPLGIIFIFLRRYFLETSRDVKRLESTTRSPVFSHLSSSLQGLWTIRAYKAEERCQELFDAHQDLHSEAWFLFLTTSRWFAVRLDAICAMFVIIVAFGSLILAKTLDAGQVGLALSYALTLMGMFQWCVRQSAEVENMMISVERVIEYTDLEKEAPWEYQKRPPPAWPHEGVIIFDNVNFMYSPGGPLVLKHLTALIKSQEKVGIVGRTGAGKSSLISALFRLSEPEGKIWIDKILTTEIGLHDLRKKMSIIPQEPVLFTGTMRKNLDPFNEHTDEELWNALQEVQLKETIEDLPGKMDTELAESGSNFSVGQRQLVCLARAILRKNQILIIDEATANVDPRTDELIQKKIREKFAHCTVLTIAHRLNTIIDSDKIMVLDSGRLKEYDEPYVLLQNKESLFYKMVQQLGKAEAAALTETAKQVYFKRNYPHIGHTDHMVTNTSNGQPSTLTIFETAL
Description: as §2

[6] = Repeat-dose study in monkeys, pharmacokinetics (14 and 56 days); settings: monkey; for AUC: exposure - AUC
[7] = dose 50 mg/kg, Day 1, individual animals, 50 mg/kg
[8] = dose 50 mg/kg, Day 14, individual animals, 50 mg/kg
[9] = dose 100 mg/kg, Day 1, individual animals, 100 mg/kg
[10] = dose 100 mg/kg, Day 14, individual animals, 100 mg/kg
[11] = dose 150 mg/kg, Day 1, individual animals, 150 mg/kg
[12] = dose 150 mg/kg, Day 56, individual animals, 150 mg/kg
[13] = dose 200 mg/kg, Day 1, individual animals, 200 mg/kg
[14] = dose 200 mg/kg, Day 14, individual animals, 200 mg/kg

CC#C[C@@H](CC(=O)O)c1ccc(OCC(C)=C(C)C)cc1 [CPL207280]
viability at 48 h, 0.78 µM ([1]; 0.78 uM): 109%
viability at 48 h, 3.125 µM ([1]; 3.125 uM): 111%
viability at 48 h, 6.25 µM ([1]; 6.25 uM): 108%
viability at 48 h, 25 µM ([1]; 25 uM): 107%
viability at 48 h, 50 µM ([1]; 50 uM): 94.1%
viability at 48 h, 100 µM ([1]; 100 uM): 80.6%
viability ([2]; human primary hepatocytes, 48 h, concentrations up to 10 μM): Neither compound exhibited altered viability
reduction of viability ([2]; primary cells, 48 h, 100 μM): 20%
viability, normalized to DMSO-treated controls ([2]; 48 h, 0.78 uM): 113.603 and 101.249
viability, normalized to DMSO-treated controls ([2]; 48 h, 3.125 uM): 114.319 and 102.513
viability, normalized to DMSO-treated controls ([2]; 48 h, 6.25 uM): 112.73 and 100.537
viability, normalized to DMSO-treated controls ([2]; 48 h, 25 uM): 106.605 and 99.5091
viability, normalized to DMSO-treated controls ([2]; 48 h, 50 uM): 95.5759 and 86.1766
viability, normalized to DMSO-treated controls ([2]; 48 h, 100 uM): 81.3191 and 75.1172
Toxicity for human hepatocytes ([2]; summary comparison CPL207280 vs TAK-875): <
number of metabolites produced by human hepatocytes ([3]; human hepatocytes, 10 μM): 12
human % of parent at 60 min ([3]; human hepatocytes, 10 μM CPL207280, 60 min, ND = not detected): 8.49%
number of metabolites identified ([3]; in all species (humans, rats, mice, monkeys, dogs), hepatocytes, 10 μM): 23
Acyl glucuronide presence in human hepatocytes ([3]; summary table): No
IC50 [4]: > 100 µM
IC50 [5]: 131 µM
fold less inhibitory potency than TAK-875, MRP4 [5]: at least 10 fold
Accumulation (counts per minute; CPM) with AMP ([5]; conc 0.10 µM): 1154 CPM and 1110 CPM
Accumulation (counts per minute; CPM) with ATP ([5]; conc 0.10 µM): 5335 CPM and 5537 CPM
Accumulation (counts per minute; CPM) with AMP ([5]; conc 1.00 µM): 1207 CPM and 1074 CPM
Accumulation (counts per minute; CPM) with ATP ([5]; conc 1.00 µM): 5159 CPM and 5701 CPM
Accumulation (counts per minute; CPM) with AMP ([5]; conc 3.00 µM): 1157 CPM and 1113 CPM
Accumulation (counts per minute; CPM) with ATP ([5]; conc 3.00 µM): 5157 CPM and 5321 CPM
Accumulation (counts per minute; CPM) with AMP ([5]; conc 10.00 µM): 1132 CPM and 1046 CPM
Accumulation (counts per minute; CPM) with ATP ([5]; conc 10.00 µM): 4884 CPM and 5225 CPM
Accumulation (counts per minute; CPM) with AMP ([5]; conc 30.00 µM): 1054 CPM and 1003 CPM
Accumulation (counts per minute; CPM) with ATP ([5]; conc 30.00 µM): 4460 CPM and 4110 CPM
Accumulation (counts per minute; CPM) with AMP ([5]; conc 100.00 µM): 1090 CPM and 1013 CPM
Accumulation (counts per minute; CPM) with ATP ([5]; conc 100.00 µM): 3600 CPM and 3817 CPM
Accumulation (counts per minute; CPM) with AMP ([5]; conc 300.00 µM): 1018 CPM and 920 CPM
Accumulation (counts per minute; CPM) with ATP ([5]; conc 300.00 µM): 2078 CPM and 2196 CPM
AUC ([6]; both, Cynomolgus, plasma, po, 100 mg/kg, dose 100 mg/kg, Day 1, individual animals): 334 µg·h/mL
AUC ([6]; both, Cynomolgus, plasma, po, 100 mg/kg, dose 100 mg/kg, Day 14, individual animals): 552 µg·h/mL
Cmax ([6]; both, cynomolgus, plasma, po, 50 mg/kg, Cmax, dose 50 mg/kg, Day 1, individual animals): 38.5 µg/mL
Cmax ([6]; both, cynomolgus, plasma, po, 50 mg/kg, Cmax, dose 50 mg/kg, Day 14, individual animals): 59.8 µg/mL
AUC ([6]; both, cynomolgus, plasma, po, 200 mg/kg, dose 200 mg/kg, Day 1, individual animals): 794 µg·h/mL
AUC ([6]; both, cynomolgus, plasma, po, 200 mg/kg, dose 200 mg/kg, Day 14, individual animals): 919 µg·h/mL
Cmax ([6]; both, plasma, po, 200 mg/kg, Cmax, dose 200 mg/kg, Day 1, individual animals): 258 µg/mL
Cmax [6, 7]: 54.2432 µg/mL and 70.1198 µg/mL and 73.0824 µg/mL
exposure - AUC [6, 7]: 85.565 µg·h/mL and 262.448 µg·h/mL and 140.708 µg·h/mL and 87.498 µg·h/mL and 100.461 µg·h/mL and 109.347 µg·h/mL and 254.256 µg·h/mL and 110.743 µg·h/mL and 146.423 µg·h/mL and 105.958 µg·h/mL and 142.73 µg·h/mL and 220.718 µg·h/mL
Cmax [6, 8]: 77.3656 µg/mL and 85.376 µg/mL and 71.8017 µg/mL
exposure - AUC [6, 8]: 101.909 µg·h/mL and 132.812 µg·h/mL and 431.268 µg·h/mL and 124.571 µg·h/mL
exposure - AUC ([6]; dose 50 mg/kg, Day 56, individual animals, 50 mg/kg): 150.303 µg·h/mL and 89.075 µg·h/mL and 182.055 µg·h/mL and 206.125 µg·h/mL and 124.755 µg·h/mL and 213.673 µg·h/mL and 113.523 µg·h/mL and 83.328 µg·h/mL
Cmax [6, 9]: 47.7304 µg/mL and 196.843 µg/mL and 120.978 µg/mL and 122.802 µg/mL
exposure - AUC [6, 9]: 385.402 µg·h/mL and 219.918 µg·h/mL and 309.18 µg·h/mL
Cmax [6, 10]: 59.7137 µg/mL and 97.7733 µg/mL and 114.927 µg/mL and 30.391 µg/mL
exposure - AUC [6, 10]: 540.113 µg·h/mL and 349.314 µg·h/mL and 371.77 µg·h/mL
Cmax [6, 11]: 174.84 µg/mL and 194.31 µg/mL and 41.31 µg/mL and 61.81 µg/mL and 148.23 µg/mL and 203.64 µg/mL and 215.41 µg/mL and 167.94 µg/mL
exposure - AUC [6, 11]: 687.155 µg·h/mL and 716.453 µg·h/mL and 299.365 µg·h/mL and 303.408 µg·h/mL and 583.353 µg·h/mL and 708.01 µg·h/mL and 517.538 µg·h/mL and 598.748 µg·h/mL
Cmax [6, 12]: 206.99 µg/mL and 230.13 µg/mL and 188.65 µg/mL and 99.77 µg/mL and 256.14 µg/mL and 172.69 µg/mL and 25.09 µg/mL and 47.76 µg/mL
exposure - AUC [6, 12]: 476.098 µg·h/mL and 561.835 µg·h/mL and 462.75 µg·h/mL and 833.928 µg·h/mL and 555.34 µg·h/mL and 670.743 µg·h/mL and 435.418 µg·h/mL and 360.168 µg·h/mL
Cmax [6, 13]: 146.587 µg/mL and 153.261 µg/mL and 191.742 µg/mL
exposure - AUC [6, 13]: 842.687 µg·h/mL and 783.604 µg·h/mL and 691.713 µg·h/mL
Cmax [6, 14]: 263.213 µg/mL and 90.4785 µg/mL and 181.854 µg/mL and 224.986 µg/mL
exposure - AUC [6, 14]: 610.926 µg·h/mL and 654.718 µg·h/mL and 646.623 µg·h/mL
exposure - AUC ([6]; dose 250 mg/kg, Day 1, individual animals, 250 mg/kg): 1583.82 µg·h/mL and 721.808 µg·h/mL and 793.135 µg·h/mL and 1183 µg·h/mL and 1366.178 µg·h/mL and 895.14 µg·h/mL and 850.363 µg·h/mL and 1425.683 µg·h/mL and 1258.01 µg·h/mL and 575.98 µg·h/mL and 469.06 µg·h/mL and 783 µg·h/mL
exposure - AUC ([6]; dose 250 mg/kg, Day 56, individual animals, 250 mg/kg): 1170.11 µg·h/mL and 1015.218 µg·h/mL and 686.383 µg·h/mL and 1887.035 µg·h/mL and 975.73 µg·h/mL and 1235.128 µg·h/mL and 1213.253 µg·h/mL and 997.608 µg·h/mL and 1100.488 µg·h/mL and 1004.075 µg·h/mL and 831.145 µg·h/mL and 1255.683 µg·h/mL
